Experiment [1] deals with genes involved in auxin biosynthesis, auxin transport, auxin signaling and cell cycle. The experiment can be described thus: Q-PCR transcript profiling of roots after compound treatment. It is filed as in vivo, Arabidopsis thaliana. The conditions noted are these: 30 μM; 6 hrs or 24 hrs treatment. Here is the method: FIG. 5: Transcript profiling of roots of wild-type Arabidopsis thaliana plants after 6 hrs or 24 hrs treatment with A2 (upper panel), A14 (middle panel) or A11 (lower panel) at a concentration of 30 μM.
RNA was extracted with the RNeasy kit. Poly(dT) cDNA was prepared from […] of total RNA with Superscript III reverse transcriptase (Invitrogen) and quantified on an LightCycler 480 apparatus (Roche) with the SYBR Green I Master kit (Roche) according to the manufacturers instructions. Target quantifications were performed with specific primer pairs designed with the Beacon Designer 4.0 (Premier Biosoft International). All PCRs were performed in triplicate. […] The primers used to quantify gene expression levels were: […]
Using Q-PCR, the expression of selected genes involved in auxin biosynthesis, auxin transport, auxin signaling and cell cycle was analyzed in response to compound treatment (FIG. 5).

Experiment [2] relates to auxin receptor mutant tir1. The experiment can be described thus: Effect of activators on the auxin receptor mutant tir1 compared with wild type. It is filed as in vivo, Arabidopsis thaliana. The conditions noted are these: tir1 mutant vs wild type, FIG. 13. From the text:
FIG. 13: Effect of activators on the auxin receptor mutant TIR1 compared with wild type.

Experiment [3] relates to Wild-type Arabidopsis thaliana. The experiment can be described thus: Dose-response analysis of lateral root density and root length. Format: in vivo. The note with it: dose-response, FIG. 3. An outline of the steps:
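Wild-type Arabidopsis seedlings, germinated on MS-derived agar, were moved at 3 days to vertical plates containing compound at various concentrations with 1% DMSO (DMSO-only controls). After 7 more days growth, lateral root density (LRs per cm) and root length were measured; error bars are standard errors.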

The subject of another experiment is auxin signaling mutants. The experiment can be described thus: Effect of activators on lateral root density of auxin signaling mutants (Table 2). It is filed as in vivo, Arabidopsis thaliana. The note with it: 30 uM. An outline of the steps: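 Arabidopsis auxin signaling mutants were germinated on MS-based vertical plates under continuous light at 22° C, moved to compound-containing medium 3 days after germination, and grown 7 more days. Root length and lateral root number were then counted from images.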

The next experiment deals with T1, auxin receptor TIR1 (Arabidopsis thaliana, UniProt Q38825+Q570C0).
T1 construct: made in house; host or cells: wheat germ in vitro transcription/translation (IVTT) extract
The experiment can be described thus: In vitro pull-down binding assay to auxin receptor TIR1. The note with it: in vitro binding assay (FIG. 2). Here is the method: FIG. 2: In vitro binding assay to analyze binding of the 16 selected activators to the auxin receptor TIR1.
Pull-down assays with wheatgerm-expressed TIR1-Myc were performed by combining […] of IVTT reaction extract with […] of biotinylated domain II peptide and […] of EB containing 1 mg/ml BSA with auxin treatments as indicated. The assays were incubated for 30 min at 4° C. and recovered on streptavidin-agarose. The final processing of pull-down assays including electrophoresis, western transfer and blotting with anti-Myc antibodies has been described in Kepinski and Leyser, 2004.
Earlier studies have shown that sirtinol is metabolized in vivo to NAA (Dai et al., 2005) while IAA, NAA, 2,4-D act by binding directly to the auxin-receptor TIR1 (Kepinski and Leyser, 2005).

T1 sequence (Q570C0 whole entry, other chains not shown): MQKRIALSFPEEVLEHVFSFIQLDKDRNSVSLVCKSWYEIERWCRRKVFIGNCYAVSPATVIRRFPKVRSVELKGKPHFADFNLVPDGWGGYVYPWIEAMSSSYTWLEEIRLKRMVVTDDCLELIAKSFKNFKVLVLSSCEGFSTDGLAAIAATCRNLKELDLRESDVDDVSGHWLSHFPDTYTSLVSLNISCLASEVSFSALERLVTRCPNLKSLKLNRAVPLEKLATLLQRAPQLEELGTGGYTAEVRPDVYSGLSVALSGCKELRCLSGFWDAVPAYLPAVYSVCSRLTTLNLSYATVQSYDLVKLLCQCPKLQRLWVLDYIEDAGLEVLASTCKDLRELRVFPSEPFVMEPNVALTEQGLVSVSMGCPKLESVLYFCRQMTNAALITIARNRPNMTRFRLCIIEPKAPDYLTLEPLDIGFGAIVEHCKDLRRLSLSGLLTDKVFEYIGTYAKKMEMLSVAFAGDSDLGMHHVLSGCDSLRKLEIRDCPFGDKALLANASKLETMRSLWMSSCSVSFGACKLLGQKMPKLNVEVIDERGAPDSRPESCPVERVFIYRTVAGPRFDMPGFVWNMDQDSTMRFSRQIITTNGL

Turning to `COc1ccccc1CNC(=O)C(C)Sc1ccc(Cl)cc1` (centres unmarked) [A14, 2-[(4-chlorophenyl)thio]-N-(2-methoxybenzyl)propanamide], in experiment [1], the “stage of LR initiation at which the effect on gene expression is exerted” value was “early stages of LR initiation (6 h)”. For the same compound, the “TIR1 dependence of the working of the compound” value in experiment [2] is listed as “strictly TIR1 dependent”. Besides, in experiment [3], the “potency as activator of LR development (LR density)” value is recorded as “most potent activators of class 2”. Further, the lateral root density in the experiment on auxin signaling mutants (Afb1-1) is on record as 24.29 LR/cm; with auxin signaling mutants (Afb2-1), 22.38 LR/cm; with auxin signaling mutants (Afb3-1), 30.09 LR/cm; in the experiment on auxin signaling mutants (Arf7Arf19), 0.00 LR/cm; in the experiment on auxin signaling mutants (Arf16), 32.75 LR/cm; in the experiment on auxin signaling mutants (Arf17) it was 32.68 LR/cm. For the same compound, the lateral root density in the experiment on auxin signaling mutants (Axrt-12) was found to be 34.01 LR/cm; with auxin signaling mutants (Cyp79), 33.25 LR/cm; in the experiment on auxin signaling mutants (Iaa28-1) it was 20.71 LR/cm; in the experiment with auxin signaling mutants (Tir1-1), 0.52 LR/cm; with auxin signaling mutants (Tir7-1), 33.41 LR/cm; with auxin signaling mutants (TirTM), 0.00 LR/cm. The compound also displayed a lateral root density with auxin signaling mutants (Xbat32) of 10.88 LR/cm.

As for `O=C(O)C1SCCN1c1ccccc1` (centres unmarked) [A15, 3-phenyl-1,3-thiazolidine-2-carboxylic acid], the “binding to TIR1” value at auxin receptor TIR1 is “could bind to TIR1”.
